Data reported in paper PMC5061470, “Promiscuous targeting of bromodomains by bromosporine identifies BET proteins as master regulators of primary transcription response in leukemia” (Science Advances, 2016).

Tests used:
[1] = biological target: BRD1 (Homo sapiens, UniProt O95696); assay type: binding
[2] = biological target: BRD3(1) (Homo sapiens, UniProt Q15059); assay type: binding
[3] = biological target: BRD4(1) (Homo sapiens, UniProt O60885); assay type: binding
[4] = biological target: T1, BRD9 (Homo sapiens, UniProt Q9H8M2); assay type: binding
T1 sequence (Q9H8M2 136-240 limits assumed): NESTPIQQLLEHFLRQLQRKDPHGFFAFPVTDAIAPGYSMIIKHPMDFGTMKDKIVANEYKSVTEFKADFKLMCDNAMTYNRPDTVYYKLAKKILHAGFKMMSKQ

[5] = biological target: T2, BRPF3 (Homo sapiens, UniProt Q9ULD4); assay type: binding
T2 construct: Human BRDs were subcloned into bacteria-expressing vectors; made in house; host or cells: bacteria
T2 sequence (Q9ULD4 589-693 limits assumed): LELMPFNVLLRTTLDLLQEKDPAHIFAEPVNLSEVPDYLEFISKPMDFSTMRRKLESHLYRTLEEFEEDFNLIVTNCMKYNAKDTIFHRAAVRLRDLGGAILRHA

[6] = biological target: T3, PCAF (Homo sapiens, UniProt Q92831); assay type: binding
T3 sequence (Q92831 723-827 limits assumed): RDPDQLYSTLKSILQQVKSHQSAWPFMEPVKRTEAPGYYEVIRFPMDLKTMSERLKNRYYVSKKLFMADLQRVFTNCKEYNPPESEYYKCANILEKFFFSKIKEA

[7] = test system: MV4;11; assay: cells; assay type: cell-based, human; details: Homo sapiens, MV4-11, 72 h, read-out: IC50, cell proliferation
[8] = test system: OCI-AML3; assay: cells; assay type: cell-based, human; details: Homo sapiens, OCI-AML-3, 72 h, read-out: IC50, cell proliferation
[9] = test system: MV4;11; assay type: cell-based, human
[10] = biological target: alpha 2A (h) (Homo sapiens, UniProt P08913); assay: biochemical; details: read-out: % Inhibition of Control Specific Binding
Sequence of alpha 2A (h) (P08913 whole entry): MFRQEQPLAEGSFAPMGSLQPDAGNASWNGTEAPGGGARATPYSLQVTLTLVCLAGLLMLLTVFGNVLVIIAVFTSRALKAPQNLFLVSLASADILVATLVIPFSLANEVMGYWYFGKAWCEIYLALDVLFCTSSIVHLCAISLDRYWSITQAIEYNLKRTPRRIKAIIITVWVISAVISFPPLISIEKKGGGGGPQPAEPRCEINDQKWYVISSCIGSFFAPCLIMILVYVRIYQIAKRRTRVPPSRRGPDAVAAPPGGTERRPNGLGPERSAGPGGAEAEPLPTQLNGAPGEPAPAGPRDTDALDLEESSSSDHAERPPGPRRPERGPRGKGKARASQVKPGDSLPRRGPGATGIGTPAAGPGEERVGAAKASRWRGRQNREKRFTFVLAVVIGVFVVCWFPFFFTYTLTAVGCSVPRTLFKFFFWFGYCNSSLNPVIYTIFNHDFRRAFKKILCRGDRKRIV

[11] = biological target: beta 3 (h) (Homo sapiens, UniProt P13945); assay: biochemical; assay type: binding; details: read-out: % Inhibition of Control Specific Binding
[12] = biological target: H2 (h) (Homo sapiens, UniProt P25021); assay: biochemical; details: read-out: % Inhibition of Control Specific Binding
Sequence of H2 (h) (P25021 whole entry): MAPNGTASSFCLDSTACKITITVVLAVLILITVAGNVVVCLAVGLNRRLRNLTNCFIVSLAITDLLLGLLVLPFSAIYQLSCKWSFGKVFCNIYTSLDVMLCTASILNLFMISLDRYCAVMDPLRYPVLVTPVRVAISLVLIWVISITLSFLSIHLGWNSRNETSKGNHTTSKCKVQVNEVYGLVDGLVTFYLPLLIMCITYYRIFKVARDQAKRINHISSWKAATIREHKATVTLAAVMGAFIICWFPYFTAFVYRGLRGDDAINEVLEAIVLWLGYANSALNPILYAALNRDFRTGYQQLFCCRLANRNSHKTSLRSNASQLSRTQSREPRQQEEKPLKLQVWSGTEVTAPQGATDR

[13] = biological target: MC3 (h) (Homo sapiens, UniProt P41968); assay: biochemical; details: read-out: % Inhibition of Control Specific Binding
[14] = biological target: motilin (h) (Homo sapiens, UniProt O43193); assay: biochemical; assay type: binding; details: read-out: % Inhibition of Control Specific Binding
Sequence of motilin (h) (O43193 whole entry): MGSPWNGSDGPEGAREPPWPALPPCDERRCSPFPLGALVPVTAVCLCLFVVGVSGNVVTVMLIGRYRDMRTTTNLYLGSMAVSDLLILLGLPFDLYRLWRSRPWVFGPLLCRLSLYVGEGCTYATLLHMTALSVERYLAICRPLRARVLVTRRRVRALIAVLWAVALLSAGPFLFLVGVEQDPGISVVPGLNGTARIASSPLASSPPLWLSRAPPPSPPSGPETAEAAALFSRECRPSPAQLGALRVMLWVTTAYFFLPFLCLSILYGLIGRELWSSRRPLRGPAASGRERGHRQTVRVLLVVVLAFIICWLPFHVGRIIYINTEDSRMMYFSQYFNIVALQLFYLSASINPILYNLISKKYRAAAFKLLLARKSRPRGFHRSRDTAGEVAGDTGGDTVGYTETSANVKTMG

[15] = biological target: N muscle-type (h) (Homo sapiens, UniProt P02708+P07510+Q07001); assay: biochemical; details: read-out: % Inhibition of Control Specific Binding
[16] = biological target: mu (MOP) (h) (Homo sapiens, UniProt P35372); assay: biochemical; details: read-out: % Inhibition of Control Specific Binding
Sequence of mu (MOP) (h) (P35372 whole entry): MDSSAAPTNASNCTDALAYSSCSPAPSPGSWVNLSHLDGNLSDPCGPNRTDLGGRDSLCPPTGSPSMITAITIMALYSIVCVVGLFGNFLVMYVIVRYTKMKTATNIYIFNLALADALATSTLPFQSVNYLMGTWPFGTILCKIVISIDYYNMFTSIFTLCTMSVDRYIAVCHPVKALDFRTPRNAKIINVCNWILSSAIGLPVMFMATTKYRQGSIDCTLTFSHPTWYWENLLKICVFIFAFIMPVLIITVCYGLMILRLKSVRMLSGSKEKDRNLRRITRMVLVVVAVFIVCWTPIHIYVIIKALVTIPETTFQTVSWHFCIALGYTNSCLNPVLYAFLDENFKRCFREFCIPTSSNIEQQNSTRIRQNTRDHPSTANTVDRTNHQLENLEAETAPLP

[17] = biological target: 5-HT2C (h) (Homo sapiens, UniProt P28335); assay: biochemical; assay type: binding; details: read-out: % Inhibition of Control Specific Binding
[18] = biological target: 5-HT4e (h) (Homo sapiens, UniProt Q13639); assay: biochemical; details: read-out: % Inhibition of Control Specific Binding
Sequence of 5-HT4e (h) (Q13639 other isoform, or with tags, fused parts or gaps): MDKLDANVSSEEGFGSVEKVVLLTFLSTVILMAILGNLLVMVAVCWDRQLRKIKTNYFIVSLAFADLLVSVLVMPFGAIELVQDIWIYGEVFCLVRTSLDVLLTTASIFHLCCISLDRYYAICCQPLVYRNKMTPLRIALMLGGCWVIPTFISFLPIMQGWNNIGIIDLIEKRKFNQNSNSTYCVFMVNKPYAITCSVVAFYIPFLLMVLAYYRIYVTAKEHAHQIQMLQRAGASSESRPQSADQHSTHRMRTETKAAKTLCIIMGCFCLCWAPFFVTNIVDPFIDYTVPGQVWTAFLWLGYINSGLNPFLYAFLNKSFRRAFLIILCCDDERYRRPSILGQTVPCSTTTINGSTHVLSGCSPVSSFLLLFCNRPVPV

[19] = biological target: Ca2+ channel (L, dihydropyridine site) (Rattus norvegicus, UniProt P22002); assay: biochemical; details: read-out: % Inhibition of Control Specific Binding
[20] = test system: Na+ channel (site 2); assay type: binding
[21] = biological target: BRD2(1) (Homo sapiens, UniProt P25440)
Sequence of BRD2(1) (P25440 74-180 limits assumed): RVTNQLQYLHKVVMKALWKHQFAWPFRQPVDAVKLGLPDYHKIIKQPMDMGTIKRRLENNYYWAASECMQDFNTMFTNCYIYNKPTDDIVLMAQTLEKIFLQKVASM

[22] = biological target: A2A (h) (Homo sapiens, UniProt P29274); assay: biochemical; details: read-out: % Inhibition of Control Specific Binding
Sequence of A2A (h) (P29274 whole entry): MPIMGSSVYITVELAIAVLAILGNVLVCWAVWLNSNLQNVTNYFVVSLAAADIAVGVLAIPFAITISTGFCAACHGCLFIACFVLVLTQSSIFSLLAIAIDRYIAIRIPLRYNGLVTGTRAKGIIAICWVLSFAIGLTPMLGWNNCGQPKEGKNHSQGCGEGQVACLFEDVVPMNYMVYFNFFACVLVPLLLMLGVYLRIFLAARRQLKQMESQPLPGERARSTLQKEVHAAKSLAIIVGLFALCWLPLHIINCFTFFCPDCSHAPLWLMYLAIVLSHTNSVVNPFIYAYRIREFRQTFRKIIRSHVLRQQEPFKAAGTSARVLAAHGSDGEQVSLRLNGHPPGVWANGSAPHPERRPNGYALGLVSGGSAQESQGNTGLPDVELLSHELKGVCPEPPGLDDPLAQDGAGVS

[23] = biological target: B2 (h) (Homo sapiens, UniProt P30411); assay: biochemical; details: read-out: % Inhibition of Control Specific Binding
Sequence of B2 (h) (P30411 whole entry): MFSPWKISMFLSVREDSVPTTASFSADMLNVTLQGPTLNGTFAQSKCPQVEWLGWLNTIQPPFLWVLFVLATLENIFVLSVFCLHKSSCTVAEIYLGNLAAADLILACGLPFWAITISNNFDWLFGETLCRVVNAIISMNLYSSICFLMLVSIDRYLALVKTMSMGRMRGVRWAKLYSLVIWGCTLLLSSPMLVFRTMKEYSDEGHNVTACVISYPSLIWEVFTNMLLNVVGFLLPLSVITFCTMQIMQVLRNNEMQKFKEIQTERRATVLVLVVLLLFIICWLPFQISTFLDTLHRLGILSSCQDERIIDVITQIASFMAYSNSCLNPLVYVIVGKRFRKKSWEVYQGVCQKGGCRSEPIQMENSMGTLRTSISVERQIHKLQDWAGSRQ

[24] = biological target: glucagon (h) (Homo sapiens, UniProt P47871); assay: biochemical; details: read-out: % Inhibition of Control Specific Binding
Sequence of glucagon (h) (P47871 26-477): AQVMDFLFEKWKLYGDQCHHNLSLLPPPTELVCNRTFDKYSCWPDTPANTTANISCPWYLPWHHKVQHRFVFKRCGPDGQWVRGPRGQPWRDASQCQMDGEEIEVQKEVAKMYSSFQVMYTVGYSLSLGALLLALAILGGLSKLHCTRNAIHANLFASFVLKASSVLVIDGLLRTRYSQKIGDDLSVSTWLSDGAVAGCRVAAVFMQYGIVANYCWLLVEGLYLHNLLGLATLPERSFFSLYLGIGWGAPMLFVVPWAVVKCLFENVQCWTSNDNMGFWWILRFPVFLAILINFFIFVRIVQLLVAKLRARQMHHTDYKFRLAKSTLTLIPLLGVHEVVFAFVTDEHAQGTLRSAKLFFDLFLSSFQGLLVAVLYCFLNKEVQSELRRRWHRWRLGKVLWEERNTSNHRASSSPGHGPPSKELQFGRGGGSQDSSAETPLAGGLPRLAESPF

[25] = biological target: MC4 (h) (Homo sapiens, UniProt P32245); assay: biochemical; details: read-out: % Inhibition of Control Specific Binding
Sequence of MC4 (h) (P32245 whole entry): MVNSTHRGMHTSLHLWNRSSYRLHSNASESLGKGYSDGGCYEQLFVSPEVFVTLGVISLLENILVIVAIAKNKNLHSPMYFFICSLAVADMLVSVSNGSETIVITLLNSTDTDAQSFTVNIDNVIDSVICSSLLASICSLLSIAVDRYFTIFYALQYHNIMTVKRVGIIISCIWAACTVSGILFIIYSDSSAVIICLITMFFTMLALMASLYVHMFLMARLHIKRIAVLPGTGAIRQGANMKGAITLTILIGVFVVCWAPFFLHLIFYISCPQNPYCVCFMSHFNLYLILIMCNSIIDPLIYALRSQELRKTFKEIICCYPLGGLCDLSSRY

[26] = biological target: M2 (h) (Homo sapiens, UniProt P08172); assay: biochemical; details: read-out: % Inhibition of Control Specific Binding
Sequence of M2 (h) (P08172 whole entry): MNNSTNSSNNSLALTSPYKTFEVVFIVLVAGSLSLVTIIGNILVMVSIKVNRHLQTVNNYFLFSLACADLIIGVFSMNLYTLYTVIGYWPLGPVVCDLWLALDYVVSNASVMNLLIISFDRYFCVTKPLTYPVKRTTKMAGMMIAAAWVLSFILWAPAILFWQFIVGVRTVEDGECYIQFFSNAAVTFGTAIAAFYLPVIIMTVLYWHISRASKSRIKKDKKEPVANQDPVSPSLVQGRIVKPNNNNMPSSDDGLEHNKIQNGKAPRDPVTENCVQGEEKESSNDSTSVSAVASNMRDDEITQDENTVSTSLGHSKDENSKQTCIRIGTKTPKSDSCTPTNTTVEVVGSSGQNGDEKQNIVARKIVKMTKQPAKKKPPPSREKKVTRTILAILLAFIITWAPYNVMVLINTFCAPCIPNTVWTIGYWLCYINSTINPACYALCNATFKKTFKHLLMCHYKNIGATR

[27] = biological target: delta 2 (DOP) (h) (Homo sapiens, UniProt P41143); assay: biochemical; details: read-out: % Inhibition of Control Specific Binding
[28] = biological target: 5-HT1A (h) (Homo sapiens, UniProt P08908); assay: biochemical; details: read-out: % Inhibition of Control Specific Binding
Sequence of 5-HT1A (h) (P08908 whole entry): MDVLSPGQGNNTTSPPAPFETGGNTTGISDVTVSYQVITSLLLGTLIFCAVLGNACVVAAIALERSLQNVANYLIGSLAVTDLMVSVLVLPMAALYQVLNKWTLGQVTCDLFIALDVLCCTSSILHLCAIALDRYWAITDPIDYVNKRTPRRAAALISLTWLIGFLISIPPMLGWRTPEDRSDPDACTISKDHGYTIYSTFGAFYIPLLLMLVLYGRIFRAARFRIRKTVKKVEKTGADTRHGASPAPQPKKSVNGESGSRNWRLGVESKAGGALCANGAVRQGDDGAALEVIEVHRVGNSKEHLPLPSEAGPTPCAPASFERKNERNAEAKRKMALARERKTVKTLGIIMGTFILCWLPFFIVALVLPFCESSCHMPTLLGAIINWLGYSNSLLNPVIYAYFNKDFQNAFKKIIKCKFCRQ

[29] = biological target: 5-HT3 (h) (Homo sapiens, UniProt P46098); assay: biochemical; details: read-out: % Inhibition of Control Specific Binding

Sequence of BRD3(1) (Q15059 34-140 limits assumed): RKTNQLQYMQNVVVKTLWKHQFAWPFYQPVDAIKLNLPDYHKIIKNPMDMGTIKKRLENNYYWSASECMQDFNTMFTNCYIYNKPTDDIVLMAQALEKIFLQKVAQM
Sequence of BRD1 (O95696 562-666): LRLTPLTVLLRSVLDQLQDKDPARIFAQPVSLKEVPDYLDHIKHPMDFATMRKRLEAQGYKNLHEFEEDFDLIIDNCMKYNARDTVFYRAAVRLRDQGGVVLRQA

Work on `CCOC(=O)Nc1cc(-c2ccc(C)c(NS(C)(=O)=O)c2)nn2c(C)nnc12` [BSP, ethyl (3-methyl-6-(4-methyl-3-(methylsulfonamido)phenyl)-[1,2,4]triazolo[4,3-b]pyridazin-8-yl)carbamate] yielded an N [1] of 1.01 ± 0.008, a TΔS [1] of 0.30 kcal/mol and a ΔG [1] of -7.62 kcal/mol. For the same molecule, the “ΔH^obs” value [1] was -7.32 ± 0.078 kcal/mol, the N [2] was 1.00 ± 0.002 and the TΔS [2] was -0.95 kcal/mol. For the same molecule, the ΔG [2] was -9.08 kcal/mol, the N [3] was 0.94 ± 0.002 and the TΔS [3] was -1.36 kcal/mol. For the same molecule, the “ΔH^obs” value [3] was -11.09 ± 0.038 kcal/mol, the N [4] was 1.00 ± 0.002 and the TΔS [4] was 0.98 kcal/mol. The ΔG [4] was -9.73 kcal/mol, the “ΔH^obs” value [4] was -8.75 ± 0.039 kcal/mol and the N [5] was 1.08 ± 0.025. For the same molecule, the TΔS [5] was 2.48 kcal/mol, the ΔG [5] was -6.68 kcal/mol and the “ΔH^obs” value [5] was -4.20 ± 0.123 kcal/mol. The N [6] was 0.95 ± 0.044, the TΔS [6] was -0.83 kcal/mol and the ΔG [6] was -7.02 kcal/mol. The “ΔH^obs” value [6] was -7.85 ± 0.454 kcal/mol, the IC50 [7] was 579 nM and the IC50 [8] was 399 nM. The “effect on cell cycle” value [9] was “distinct G1 arrest with reduced S-phase populations”, the inhibition at 10 µM [10] was 7% and the inhibition at 10 µM [11] was 11%. The inhibition at 10 µM [12] was 5%, the inhibition at 10 µM [13] was -7% and the inhibition at 10 µM [14] was 7%. The inhibition at 10 µM [15] was -7%, the inhibition at 10 µM [16] was 1% and the inhibition at 10 µM [17] was 2%. The inhibition at 10 µM [18] was 5%, the inhibition at 10 µM [19] was -4% and the “% Inhibition of Control Specific Binding” value [20] was 4. The N [21] was 1.00 ± 0.003, the TΔS [21] was 1.34 kcal/mol and the ΔG [21] was -9.25 kcal/mol. The “ΔH^obs” value [21] was -7.90 ± 0.034 kcal/mol, the inhibition at 10 µM [22] was 68% and the inhibition at 10 µM [23] was -1%. For the same molecule, the inhibition at 10 µM [24] was -8%, the inhibition at 10 µM [25] was -23% and the inhibition at 10 µM [26] was 12%. The inhibition at 10 µM [27] was 7%, the inhibition at 10 µM [28] was -11% and the inhibition at 10 µM [29] was 3%.
